The test system of the assay is P388 leukemia ip, CD2F1 mice, survival T/C. As to the kind of experiment: NCI In Vivo Anticancer Drug Screen. Data for tumor model P388 Leukemia (intraperitoneal) in CD2F1 (CDF1) mice. As to conditions: endpoint: median survival time, higher = longer survival. In short, it runs like this:
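Mice carrying the transplanted tumor received test compound or vehicle. Survival was recorded in each group, and the value is the treated-group measurement divided by that of the vehicle-treated control group.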

Setting [1] is: dose: 12.5 mg/kg/injection, schedule: Q01DX005 (ip), vehicle: saline.
Setting [2] is: dose: 25.0 mg/kg/injection, schedule: Q01DX005 (ip), vehicle: saline.
The mark [3] stands for this setting: dose: 50.0 mg/kg/injection, schedule: Q01DX005 (ip), vehicle: saline.

Several values for one entry are separate records, joined by “and”; a condition that tells them apart may be missing. Equal entries are not always repeated. Inconclusive results and toxic doses are left out.

Regarding `CC1(C)CC(OC(=O)c2c3ccccc3c3ccc4cccc5ccc2c3c54)CC(C)(C)N1O`, the T/C reads like this: (dose: 50.0 mg/kg/injection, schedule: Q01DX009 (ip), vehicle: saline with Tween-80) 91 % of control; (dose: 100.0 mg/kg/injection, schedule: Q01DX009 (ip), vehicle: saline with Tween-80) 91 % of control; (dose: 200.0 mg/kg/injection, schedule: Q01DX009 (ip), vehicle: saline with Tween-80) 90 % of control.
With `O=NN(CC(=O)OCc1ccccc1)OCc1ccccc1`, the T/C was 101 % of control (dose: 12.5 mg/kg/injection, schedule: Q01DX009 (ip), vehicle: other); 104 % of control (dose: 25.0 mg/kg/injection, schedule: Q01DX009 (ip), vehicle: other); 102 % of control (dose: 50.0 mg/kg/injection, schedule: Q01DX009 (ip), vehicle: other); 108 % of control (dose: 100.0 mg/kg/injection, schedule: Q01DX009 (ip), vehicle: other); 100 % of control (dose: 200.0 mg/kg/injection, schedule: Q01DX009 (ip), vehicle: other).
For the molecule `COc1cc(C2c3cc4c(cc3[C@@H](OC3OC5CO[C@@H](c6cccs6)OC5C(O)C3O)[C@H]3COC(=O)C23)OCO4)cc(OC)c1OC` (some centres not stated), the T/C is, setting by setting: (dose: 2.0 mg/kg/injection, schedule: Q01DX005 (ip), vehicle: saline) 123 % of control; (dose: 8.0 mg/kg/injection, schedule: Q01DX005 (ip), vehicle: saline) 155 % of control; (dose: 16.0 mg/kg/injection, schedule: Q01DX005 (ip), vehicle: saline) 175 % of control and 185 % of control; (dose: 32.0 mg/kg/injection, schedule: Q01DX005 (ip), vehicle: saline) 203 % of control; (dose: 64.0 mg/kg/injection, schedule: Q01DX005 (ip), vehicle: saline) 225 % of control.
Regarding `CCC(O)(c1ccccc1)c1cnc(C)n1Cc1ccccc1` (configuration not stated), the T/C is, setting by setting: (dose: 60.0 mg/kg/injection, schedule: Q01DX005 (ip), vehicle: saline with Tween-80) 91 % of control; (dose: 120.0 mg/kg/injection, schedule: Q01DX005 (ip), vehicle: saline with Tween-80) 88 % of control; (dose: 240.0 mg/kg/injection, schedule: Q01DX005 (ip), vehicle: saline with Tween-80) 89 % of control.
Take `Cc1cccc(Nc2c3ccccc3nc3ccccc23)c1`: the T/C reads like this: (dose: 25.0 mg/kg/injection, schedule: Q01DX001 (ip), vehicle: saline with Tween-80) 95 % of control; (dose: 50.0 mg/kg/injection, schedule: Q01DX001 (ip), vehicle: saline with Tween-80) 100 % of control; (dose: 100.0 mg/kg/injection, schedule: Q01DX001 (ip), vehicle: saline with Tween-80) 95 % of control.
`COC(=O)c1cc(-c2ccc(C)cc2)[nH]c(=O)c1C#N`: the T/C is 103 % of control (dose: 60.0 mg/kg/injection, schedule: Q01DX005 (ip), vehicle: saline); 100 % of control (dose: 120.0 mg/kg/injection, schedule: Q01DX005 (ip), vehicle: saline); 108 % of control (dose: 240.0 mg/kg/injection, schedule: Q01DX005 (ip), vehicle: saline).
As to `CCCCN(CCCC)CCCNc1c2c(nc3ccccc13)CCCC2`, the T/C is, setting by setting: under setting [1], 95 % of control; under setting [2], 104 % of control; under setting [3], 100 % of control.
`COc1cc(C(=O)C(CN(C)C)CN(C)C)cc(OC)c1OC`: the T/C runs as follows: under setting [1], 101 % of control; under setting [2], 100 % of control; under setting [3], 107 % of control and 114 % of control.
As to `COc1cc2c(c(OC)c1OC)-c1ccc(SC)c(=O)cc1[C@@H](NC(=O)C(F)(F)F)CC2`, the T/C is 110 % of control and 117 % of control (dose: 0.08 mg/kg/injection, schedule: Q01DX009 (ip), vehicle: Klucel (hydroxypropylcellulose) (HPC)); 120 % of control and 124 % of control (dose: 0.16 mg/kg/injection, schedule: Q01DX009 (ip), vehicle: Klucel (hydroxypropylcellulose) (HPC)).
Turning to `Cc1nc2nc(O)c(Cc3ccccc3)c(=O)n2nc1C`, the T/C is, setting by setting: (dose: 50.0 mg/kg/injection, schedule: Q01DX005 (ip), vehicle: Klucel (hydroxypropylcellulose) (HPC)) 95 % of control; (dose: 100.0 mg/kg/injection, schedule: Q01DX005 (ip), vehicle: Klucel (hydroxypropylcellulose) (HPC)) 93 % of control; (dose: 200.0 mg/kg/injection, schedule: Q01DX005 (ip), vehicle: Klucel (hydroxypropylcellulose) (HPC)) 95 % of control.
Turning to `CCN(CC)CCCNc1cnc2ccc(OC)cc2n1`, the T/C was 94 % of control (dose: 25.0 mg/kg/injection, schedule: Q04DX003 (ip), vehicle: saline); 91 % of control (dose: 50.0 mg/kg/injection, schedule: Q04DX003 (ip), vehicle: saline); 103 % of control (dose: 100.0 mg/kg/injection, schedule: Q04DX003 (ip), vehicle: saline).
As to `COc1ccc(C2=C(Cl)C(=O)N(c3ccccn3)C(=O)C2(Cl)Cl)cc1`, the T/C reads like this: (dose: 100.0 mg/kg/injection, schedule: Q04DX003 (ip), vehicle: Klucel (hydroxypropylcellulose) (HPC)) 98 % of control; (dose: 200.0 mg/kg/injection, schedule: Q04DX003 (ip), vehicle: Klucel (hydroxypropylcellulose) (HPC)) 106 % of control; (dose: 400.0 mg/kg/injection, schedule: Q04DX003 (ip), vehicle: Klucel (hydroxypropylcellulose) (HPC)) 100 % of control.
As for `CCOC(=O)C(N)CSC(=O)NC` (configuration not stated), the T/C runs as follows: (dose: 10.4 mg/kg/injection, schedule: Q03HX024 (ip), vehicle: saline) 118 % of control; (dose: 20.8 mg/kg/injection, schedule: Q03HX024 (ip), vehicle: saline) 124 % of control; under setting [2], 108 % of control; (dose: 27.7 mg/kg/injection, schedule: Q01DX009 (ip), vehicle: saline) 119 % of control; (dose: 27.7 mg/kg/injection, schedule: Q01DX009 (oral), vehicle: saline) 109 % of control; (dose: 31.2 mg/kg/injection, schedule: Q03HX008 (ip), vehicle: saline) 111 % of control. Moreover, the T/C runs as follows: under setting [3], 112 % of control and 114 % of control (2×); (dose: 50.0 mg/kg/injection, schedule: Q01DX005 (iv), vehicle: saline) 101 % of control; (dose: 55.5 mg/kg/injection, schedule: Q01DX009 (oral), vehicle: saline) 111 % of control; (dose: 62.5 mg/kg/injection, schedule: Q03HX008 (ip), vehicle: saline) 120 % of control; (dose: 83.3 mg/kg/injection, schedule: Q03HX024 (ip), vehicle: saline) 162 % of control; (dose: 83.3 mg/kg/injection, schedule: Q04DX003 (ip), vehicle: saline) 113 % of control. Also, the T/C by setting is: (dose: 100.0 mg/kg/injection, schedule: Q01DX005 (iv), vehicle: saline) 106 % of control; (dose: 111.1 mg/kg/injection, schedule: Q01DX009 (oral), vehicle: saline) 120 % of control; (dose: 133.0 mg/kg/injection, schedule: Q01DX009 (ip), vehicle: saline) 152 % of control; (dose: 166.6 mg/kg/injection, schedule: Q03HX024 (ip), vehicle: saline) 187 % of control; (dose: 166.6 mg/kg/injection, schedule: Q04DX003 (ip), vehicle: saline) 120 % of control; (dose: 200.0 mg/kg/injection, schedule: Q01DX005 (iv), vehicle: saline) 118 % of control. For the same molecule, the T/C by setting is: (dose: 200.0 mg/kg/injection, schedule: Q01DX009 (ip), vehicle: saline) 154 % of control; (dose: 222.2 mg/kg/injection, schedule: Q01DX009 (ip), vehicle: saline) 156 % of control; (dose: 250.0 mg/kg/injection, schedule: Q01DX001 (ip), vehicle: saline) 114 % of control; (dose: 250.0 mg/kg/injection, schedule: Q01DX001 (iv), vehicle: saline) 92 % of control; (dose: 300.0 mg/kg/injection, schedule: Q01DX009 (ip), vehicle: saline) 170 % of control; (dose: 444.4 mg/kg/injection, schedule: Q01DX009 (ip), vehicle: saline) 169 % of control. In addition, the T/C is 155 % of control (dose: 444.4 mg/kg/injection, schedule: Q01DX009 (oral), vehicle: saline); 117 % of control (dose: 500.0 mg/kg/injection, schedule: Q01DX001 (ip), vehicle: saline); 102 % of control (dose: 500.0 mg/kg/injection, schedule: Q01DX001 (iv), vehicle: saline); 153 % of control (dose: 666.6 mg/kg/injection, schedule: Q04DX003 (ip), vehicle: saline); 195 % of control (dose: 888.8 mg/kg/injection, schedule: Q01DX009 (oral), vehicle: saline); 119 % of control (dose: 1000.0 mg/kg/injection, schedule: Q01DX001 (ip), vehicle: saline).
On to `CCCN1C(=O)CC(NC(C)=O)C1=O` (configuration not stated), for which the T/C is 107 % of control (dose: 50.0 mg/kg/injection, schedule: Q01DX005 (ip), vehicle: saline with Tween-80); 107 % of control (dose: 100.0 mg/kg/injection, schedule: Q01DX005 (ip), vehicle: saline with Tween-80); 107 % of control (dose: 200.0 mg/kg/injection, schedule: Q01DX005 (ip), vehicle: saline with Tween-80).
